# Results as given in article PMC3087488 (Journal of Oncology, 2011).
# Marks after values point to notes of the source that are not given here.
# Experiment: adverse events in patients (CTCAE version 3.0)
# Type: in vivo, human
# Details: for Any motesanib-related AE, Grade 5 / Motesanib-related AE: Anorexia / Motesanib-related AE: Constipation / Motesanib-related AE: Deep vein thrombosis / Motesanib-related AE: Dehydration / Motesanib-related AE: Dermatitis acneiform / Motesanib-related AE: Diarrhea / Motesanib-related AE: Erythema / Motesanib-related AE: Fatigue / Motesanib-related AE: Hypertension / Motesanib-related AE: Nausea / Motesanib-related AE: Pulmonary embolism / Motesanib-related AE: Rash / Motesanib-related AE: Vomiting / Motesanib-related Arterial thromboembolic events (all grades) / Motesanib-related Arterial thrombosis, Grade 3 / Motesanib-related Arterial thrombosis, Grade 4 / Motesanib-related Cerebrovascular accident, Grade 2 / Motesanib-related Deep vein thrombosis, Grade 2 / Motesanib-related Deep vein thrombosis, Grade 3 / Motesanib-related Gallbladder disorder, Grade 1 / Motesanib-related Hemorrhagic events, Grade 1 / Motesanib-related Jugular vein thrombosis, Grade 2 / Motesanib-related Neutropenia, Grade 3 / Motesanib-related Pulmonary embolism, Grade 4 / Motesanib-related Pulmonary embolism, Grade 5 / Motesanib-related Venous thromboembolic events (all grades) / Patients with any motesanib-related AE / Any motesanib-related AE, Grade 3 / Any motesanib-related AE, Grade 4: gemcitabine/cisplatin
# Protocol: Adverse events were recorded throughout the study and graded (including DLTs) according to the Common Terminology Criteria for Adverse Events, version 3.0. Samples for assessment of hematology, blood chemistry, urinalysis, and thyroid function were collected on day 1 of each cycle.
# [1] = motesanib 75 mg QD (n = 6) + panitumumab
# [2] = motesanib 100 mg QD (n = 6) + panitumumab
# [3] = motesanib 125 mg QD (n = 11) + panitumumab
smiles,measurement,setting,value
CC1(C)CNc2cc(NC(=O)c3cccnc3NCc3ccncc3)ccc21 [motesanib],"Any motesanib-related AE, Grade 5",[1],0 (0) n (%)
same,Motesanib-related AE: Anorexia,[1],0 (0) n (%)
same,Motesanib-related AE: Constipation,[1],2 (33) n (%)
same,Motesanib-related AE: Deep vein thrombosis,[1],0 (0) n (%)
same,Motesanib-related AE: Dehydration,[1],1 (17) n (%)
same,Motesanib-related AE: Dermatitis acneiform,[1],2 (33) n (%)
same,Motesanib-related AE: Diarrhea,[1],1 (17) n (%)
same,Motesanib-related AE: Erythema,[1],2 (33) n (%)
same,Motesanib-related AE: Fatigue,[1],2 (33) n (%)
same,Motesanib-related AE: Hypertension,[1],4 (67) n (%)
same,Motesanib-related AE: Nausea,[1],5 (83) n (%)
same,Motesanib-related AE: Pulmonary embolism,[1],2 (33) n (%)
same,Motesanib-related AE: Rash,[1],1 (17) n (%)
same,Motesanib-related AE: Vomiting,[1],3 (50) n (%)
same,Motesanib-related Arterial thromboembolic events (all grades),[1],0 (0) n (%)
same,"Motesanib-related Arterial thrombosis, Grade 3",[1],0 (0) n (%)
same,"Motesanib-related Arterial thrombosis, Grade 4",[1],0 (0) n (%)
same,"Motesanib-related Cerebrovascular accident, Grade 2",[1],0 (0) n (%)
same,"Motesanib-related Deep vein thrombosis, Grade 2",[1],0 (0) n (%)
same,"Motesanib-related Deep vein thrombosis, Grade 3",[1],0 (0) n (%)
same,"Motesanib-related Gallbladder disorder, Grade 1",[1],1 (17) n (%)
same,"Motesanib-related Hemorrhagic events, Grade 1",[1],0 (0) n (%)
same,"Motesanib-related Jugular vein thrombosis, Grade 2",[1],1 (17) n (%)
same,"Motesanib-related Neutropenia, Grade 3",[1],0 (0) n (%)
same,"Motesanib-related Pulmonary embolism, Grade 4",[1],2 (33) n (%)
same,"Motesanib-related Pulmonary embolism, Grade 5",[1],0 (0) n (%)
same,Motesanib-related Venous thromboembolic events (all grades),[1],3 (50) n (%)
same,Patients with any motesanib-related AE,[1],6 (100) n (%)
same,"Any motesanib-related AE, Grade 3",[2],1 (17) n (%)
same,"Any motesanib-related AE, Grade 4",[2],2 (33) n (%)
same,"Any motesanib-related AE, Grade 5",[2],0 (0) n (%)
same,Motesanib-related AE: Anorexia,[2],2 (33) n (%)
same,Motesanib-related AE: Constipation,[2],0 (0) n (%)
same,Motesanib-related AE: Deep vein thrombosis,[2],1 (17) n (%)
same,Motesanib-related AE: Dehydration,[2],0 (0) n (%)
same,Motesanib-related AE: Dermatitis acneiform,[2],0 (0) n (%)
same,Motesanib-related AE: Diarrhea,[2],0 (0) n (%)
same,Motesanib-related AE: Erythema,[2],1 (17) n (%)
same,Motesanib-related AE: Fatigue,[2],2 (33) n (%)
same,Motesanib-related AE: Hypertension,[2],2 (33) n (%)
same,Motesanib-related AE: Nausea,[2],2 (33) n (%)
same,Motesanib-related AE: Pulmonary embolism,[2],2 (33) n (%)
same,Motesanib-related AE: Rash,[2],0 (0) n (%)
same,Motesanib-related AE: Vomiting,[2],1 (17) n (%)
same,Motesanib-related Arterial thromboembolic events (all grades),[2],0 (0) n (%)
same,"Motesanib-related Arterial thrombosis, Grade 3",[2],0 (0) n (%)
same,"Motesanib-related Arterial thrombosis, Grade 4",[2],0 (0) n (%)
same,"Motesanib-related Cerebrovascular accident, Grade 2",[2],0 (0) n (%)
same,"Motesanib-related Deep vein thrombosis, Grade 2",[2],0 (0) n (%)
same,"Motesanib-related Deep vein thrombosis, Grade 3",[2],1 (17)^b n (%)
same,"Motesanib-related Gallbladder disorder, Grade 1",[2],0 (0) n (%)
same,"Motesanib-related Hemorrhagic events, Grade 1",[2],1 (17) n (%)
same,"Motesanib-related Jugular vein thrombosis, Grade 2",[2],0 (0) n (%)
same,"Motesanib-related Neutropenia, Grade 3",[2],0 (0) n (%)
same,"Motesanib-related Pulmonary embolism, Grade 4",[2],2 (33)^b n (%)
same,"Motesanib-related Pulmonary embolism, Grade 5",[2],0 (0) n (%)
same,Motesanib-related Venous thromboembolic events (all grades),[2],2 (33) n (%)
same,Patients with any motesanib-related AE,[2],4 (67) n (%)
same,"Any motesanib-related AE, Grade 3",[3],6 (55) n (%)
same,"Any motesanib-related AE, Grade 4",[3],3 (27) n (%)
same,Motesanib-related AE: Anorexia,[3],4 (36) n (%)
same,Motesanib-related AE: Constipation,[3],2 (18) n (%)
same,Motesanib-related AE: Deep vein thrombosis,[3],2 (18) n (%)
same,Motesanib-related AE: Dehydration,[3],3 (27) n (%)
same,Motesanib-related AE: Dermatitis acneiform,[3],2 (18) n (%)
same,Motesanib-related AE: Diarrhea,[3],7 (64) n (%)
same,Motesanib-related AE: Erythema,[3],0 (0) n (%)
same,Motesanib-related AE: Fatigue,[3],6 (55) n (%)
same,Motesanib-related AE: Hypertension,[3],5 (45) n (%)
same,Motesanib-related AE: Nausea,[3],4 (36) n (%)
same,Motesanib-related AE: Pulmonary embolism,[3],3 (27) n (%)
same,Motesanib-related AE: Rash,[3],2 (18) n (%)
same,Motesanib-related AE: Vomiting,[3],2 (18) n (%)
same,Motesanib-related Arterial thromboembolic events (all grades),[3],1 (9) n (%)
same,"Motesanib-related Arterial thrombosis, Grade 3",[3],1 (9) n (%)
same,"Motesanib-related Arterial thrombosis, Grade 4",[3],0 (0) n (%)
same,"Motesanib-related Cerebrovascular accident, Grade 2",[3],0 (0) n (%)
same,"Motesanib-related Deep vein thrombosis, Grade 2",[3],0 (0) n (%)
same,"Motesanib-related Deep vein thrombosis, Grade 3",[3],2 (18)^c n (%)
same,"Motesanib-related Gallbladder disorder, Grade 1",[3],0 (0) n (%)
same,"Motesanib-related Hemorrhagic events, Grade 1",[3],3 (27) n (%)
same,"Motesanib-related Jugular vein thrombosis, Grade 2",[3],0 (0) n (%)
same,"Motesanib-related Neutropenia, Grade 3",[3],0 (0) n (%)
same,"Motesanib-related Pulmonary embolism, Grade 4",[3],3 (27)^c n (%)
same,"Motesanib-related Pulmonary embolism, Grade 5",[3],0 (0) n (%)
same,Motesanib-related Venous thromboembolic events (all grades),[3],3 (27) n (%)
same,Patients with any motesanib-related AE,[3],11 (100) n (%)
same,"Any motesanib-related AE, Grade 5","motesanib 125 mg QD (n = 11) + panitumumab, sudden death",1 (9)^a n (%)
same,tolerability of the combination treatment,"motesanib, panitumumab, and gemcitabine/cisplatin at the doses and schedule administered",not tolerable
same,patients with motesanib-related adverse events,of the 33 patients who received motesanib (88%),29 patients
same,deaths considered related to motesanib and panitumumab,"pulmonary embolism, 50 mg QD, and sudden death, 125 mg QD, within 30 days of treatment",Two
same,grade 3/4 arterial thrombosis,treatment regimen as a whole,2 patients
same,grade 3 deep vein thrombosis,treatment regimen as a whole,3 patients
same,grade 4 pulmonary embolism,treatment regimen as a whole,8 patients
